In ChEMBL document CHEMBL3885861, “Open TG-GATES”:

Species on record: Rattus norvegicus
Test: Open TG-GATES - Regimen: Single
Type: toxicity, organism-based, Sprague-Dawley
Parameters: regimen Single, gender Male, age 6 weeks
Details: in vivo, po, 1000 mg/kg, route gavage, dose level Middle; for APTT / Bas / Eos / Fbg / Hb / Ht / Lym / MCH / MCHC / MCV / Mono / Neu / PT / Plat / RBC / Ret / WBC: tissue Blood; for KIDNEY_L / KIDNEY_R / KIDNEY_TOTAL: tissue Kidney; for LIVER: tissue Liver; for A/G / ALP / ALT / AST / BUN / CRE / Ca / Cl / DBIL / GLC / IP / K / LDH / Na / PL / RALB / TBIL / TC / TG / TP / gamma-GTP: tissue Plasma

Clc1c(Cl)c(Cl)c(Cl)c(Cl)c1Cl [PERCHLOROBENZENE]
TERMINAL_BW (3 h): 222.7 g | APTT (3 h): 18.7 s | Bas (3 h): 0% | Eos (3 h): 1% | Fbg (3 h): 227 mg/dL | Hb (3 h): 13.3 g/dL | Ht (3 h): 38% | Lym (3 h): 78% | MCH (3 h): 21.8 pg | MCHC (3 h): 35% | MCV (3 h): 62.1 fL | Mono (3 h): 3.2% | Neu (3 h): 16.4% | PT (3 h): 11.8 s | Plat (3 h): 122.1 x10_4/uL | RBC (3 h): 612 x10_4/ul | Ret (3 h): 7.6% | WBC (3 h): 85.3 x10_2/uL | KIDNEY_L (3 h): 1 g | KIDNEY_R (3 h): 1 g | KIDNEY_TOTAL (3 h): 1.9 g | LIVER (3 h): 10.4 g | A/G (3 h): 1.7 | ALP (3 h): 992 IU/L | ALT (3 h): 35.2 IU/L | AST (3 h): 79.2 IU/L | BUN (3 h): 11.6 mg/dL | CRE (3 h): 0.4 mg/dL | Ca (3 h): 10.9 mg/dL | Cl (3 h): 104 meq/L | DBIL (3 h): 0.066 mg/dL | GLC (3 h): 198.4 mg/dL | IP (3 h): 8.8 mg/dL | K (3 h): 3.8 meq/L | LDH (3 h): 214 IU/L | Na (3 h): 141.6 meq/L | PL (3 h): 143.8 mg/dL | RALB (3 h): 3.5 g/dL | TBIL (3 h): 0.1 mg/dL | TC (3 h): 68.6 mg/dL | TG (3 h): 94.8 mg/dL | TP (3 h): 5.5 g/dL | gamma-GTP (3 h): 1 IU/L | TERMINAL_BW (6 h): 217.7 g | APTT (6 h): 18.9 s | Bas (6 h): 0.2% | Eos (6 h): 1% | Fbg (6 h): 223.2 mg/dL | Hb (6 h): 13.4 g/dL | Ht (6 h): 38.5% | Lym (6 h): 71.2% | MCH (6 h): 21.6 pg | MCHC (6 h): 34.9% | MCV (6 h): 62.1 fL | Mono (6 h): 3.2% | Neu (6 h): 23.4% | PT (6 h): 12.2 s | Plat (6 h): 132.8 x10_4/uL | RBC (6 h): 620.2 x10_4/ul | Ret (6 h): 7.3% | WBC (6 h): 100.6 x10_2/uL | KIDNEY_L (6 h): 1 g | KIDNEY_R (6 h): 0.9 g | KIDNEY_TOTAL (6 h): 1.9 g | LIVER (6 h): 9 g | A/G (6 h): 1.7 | ALP (6 h): 1078.8 IU/L | ALT (6 h): 33.4 IU/L | AST (6 h): 79 IU/L | BUN (6 h): 10 mg/dL | CRE (6 h): 0.4 mg/dL | Ca (6 h): 10.5 mg/dL | Cl (6 h): 103.4 meq/L | DBIL (6 h): 0.064 mg/dL | GLC (6 h): 186 mg/dL | IP (6 h): 9 mg/dL | K (6 h): 4.1 meq/L | LDH (6 h): 224 IU/L | Na (6 h): 141.4 meq/L | PL (6 h): 127.4 mg/dL | RALB (6 h): 3.4 g/dL | TBIL (6 h): 0.1 mg/dL | TC (6 h): 69.4 mg/dL | TG (6 h): 55.2 mg/dL | TP (6 h): 5.4 g/dL | gamma-GTP (6 h): 1 IU/L | TERMINAL_BW (9 h): 216.4 g | APTT (9 h): 19.1 s | Bas (9 h): 0.2% | Eos (9 h): 1% | Fbg (9 h): 220.6 mg/dL | Hb (9 h): 13.5 g/dL | Ht (9 h): 38.5% | Lym (9 h): 72% | MCH (9 h): 21.2 pg | MCHC (9 h): 34.9% | MCV (9 h): 60.6 fL | Mono (9 h): 2.8% | Neu (9 h): 23% | PT (9 h): 12.3 s | Plat (9 h): 124.7 x10_4/uL | RBC (9 h): 636 x10_4/ul | Ret (9 h): 6.9% | WBC (9 h): 72.6 x10_2/uL | KIDNEY_L (9 h): 1 g | KIDNEY_R (9 h): 1 g | KIDNEY_TOTAL (9 h): 1.9 g | LIVER (9 h): 8.8 g | A/G (9 h): 1.6 | ALP (9 h): 926.6 IU/L | ALT (9 h): 27.4 IU/L | AST (9 h): 63.4 IU/L | BUN (9 h): 11.2 mg/dL | CRE (9 h): 0.3 mg/dL | Ca (9 h): 10.5 mg/dL | Cl (9 h): 103.4 meq/L | DBIL (9 h): 0.058 mg/dL | GLC (9 h): 201.2 mg/dL | IP (9 h): 10.4 mg/dL | K (9 h): 3.8 meq/L | LDH (9 h): 191.4 IU/L | Na (9 h): 142 meq/L | PL (9 h): 121.2 mg/dL | RALB (9 h): 3.3 g/dL | TBIL (9 h): 0.1 mg/dL | TC (9 h): 61 mg/dL | TG (9 h): 39 mg/dL | TP (9 h): 5.4 g/dL | gamma-GTP (9 h): 1.2 IU/L | TERMINAL_BW (24 h): 230.6 g | APTT (24 h): 18.3 s | Bas (24 h): 0.2% | Eos (24 h): 1% | Fbg (24 h): 240.8 mg/dL | Hb (24 h): 13.6 g/dL | Ht (24 h): 39.3% | Lym (24 h): 74.2% | MCH (24 h): 21.3 pg | MCHC (24 h): 34.5% | MCV (24 h): 61.6 fL | Mono (24 h): 3% | Neu (24 h): 20.6% | PT (24 h): 11.7 s | Plat (24 h): 128 x10_4/uL | RBC (24 h): 637.6 x10_4/ul | Ret (24 h): 6.5% | WBC (24 h): 80.8 x10_2/uL | KIDNEY_L (24 h): 1 g | KIDNEY_R (24 h): 1 g | KIDNEY_TOTAL (24 h): 2.1 g | LIVER (24 h): 11.1 g | A/G (24 h): 1.5 | ALP (24 h): 901 IU/L | ALT (24 h): 35.4 IU/L | AST (24 h): 66.2 IU/L | BUN (24 h): 14.2 mg/dL | CRE (24 h): 0.4 mg/dL | Ca (24 h): 11 mg/dL | Cl (24 h): 103.4 meq/L | DBIL (24 h): 0.056 mg/dL | GLC (24 h): 204.8 mg/dL | IP (24 h): 6.9 mg/dL | K (24 h): 3.8 meq/L | LDH (24 h): 230.6 IU/L | Na (24 h): 141.4 meq/L | PL (24 h): 152.8 mg/dL | RALB (24 h): 3.4 g/dL | TBIL (24 h): 0.096 mg/dL | TC (24 h): 80.4 mg/dL | TG (24 h): 133.6 mg/dL | TP (24 h): 5.6 g/dL | gamma-GTP (24 h): 1 IU/L
